Here are results for 3 compounds from PMC9697947 (Viruses, 2022).

For data set [1], the system named is eHEV-nanoKAZ. Briefly: Time-of-addition: viral internalization assay. Particulars: PLC/PRF/5 cells. The format is cell-based, Hepatitis E virus.
The test system of data set [2] is eHEV-3 (JE03-1760F). Briefly: Immunofluorescence assay of HEV ORF2 protein expression in PLC/PRF/5 cells. Type of data set: cell-based, Hepatitis E virus genotype 3. Particulars: day 4 post-inoculation.
Data set [3] concerns HEV. Particulars: ribavirin monotherapy; undetectable serum HEV RNA at least six months after cessation; cited from earlier work.
For data set [4], the system named is eHEV-nanoKAZ. In words: Time-of-addition: viral attachment assay (intracellular luciferase activity). The format is cell-based, Hepatitis E virus. Particulars: PLC/PRF/5 cells.
For data set [5], the system named is eHEV-nanoKAZ. Briefly: microbe, parasite or virus in culture. As to conditions: Hepatitis E virus, PLC-PRF-5, read-out: Inhibition (%) of intracellular luciferase activity.
Data set [6] relates to eHEV-3 (JE03-1760F). Briefly: HEV growth in PLC/PRF/5 cells inoculated with eHEV-3. Particulars: 48 dpi. The format is cell-based, Hepatitis E virus genotype 3.
Data set [7] concerns eHEV-4 (HE-JF5/15F). Briefly: HEV growth in PLC/PRF/5 cells robustly producing eHEV-4. The format is cell-based, Hepatitis E virus genotype 4.
Data set [8] deals with eHEV-3 (JE03-1760F). In words: HEV growth in PLC/PRF/5 cells robustly producing eHEV-3. The format is cell-based, Hepatitis E virus genotype 3.
Data set [9] deals with eHEV-nanoKAZ. In words: Time-of-addition: viral inactivation assay (intracellular luciferase activity). As to conditions: PLC/PRF/5 cells, 4 days post-inoculation.
For data set [10], the system named is eHEV-4 (HE-JF5/15F). Briefly: HEV growth in PLC/PRF/5 cells inoculated with eHEV-4. Type of data set: cell-based, Hepatitis E virus genotype 4. Particulars: 48 dpi.
On the set-up of data set [11]: method as in ref 47 = [47]. Particulars: Antiretroviral Pregnancy Registry (APR); cited from earlier work.
Data set [12] deals with HEV. On the set-up: method as in ref 31 = [31]. As to conditions: cited from earlier work.
Setting [13] is: ribavirin 40 μM, mean of triplicate wells.
Setting [14] is: ribavirin 40 μM, 60 days after the start of drug treatment, mean of triplicate wells.
Where [15] appears, read: ribavirin alone 40 µM, day 60 after the start of drug treatment.

For the compound `OC[C@H]1O[C@@](CO)(O[C@H]2O[C@H](CO)[C@@H](O)[C@H](O)[C@H]2O)[C@@H](O)[C@@H]1O` [Sucrose], the intracellular luciferase activity in data set [1] (sucrose 250 mM added after attachment, 37 °C 2 h, compared to untreated control, p = 0.0033) is 14.9%. In data set [2] (sucrose 250 mM during 4 h inoculation), the “expression of ORF2 protein” value is “undetectable”.
The inhibition is the share of the control response that was lost under treatment. For `NC(=O)c1ncn([C@@H]2O[C@H](CO)[C@@H](O)[C@H]2O)n1` [Ribavirin, ribavirin], the “sustained virological response (SVR), patients achieving” value in data set [3] is on record as “approximately 80%”. In addition, the intracellular luciferase activity result in data set [4] (ribavirin 40 µM during attachment), in data set [1] (ribavirin 40 µM added after attachment) and in [9] (ribavirin 40 µM pre-incubated with eHEV-nanoKAZ) was “did not decrease intracellular luciferase activity” throughout. The inhibition at 1 µM in data set [5] worked out at 20.4%. In data set [5], the inhibition at 5 µM worked out at 24.2%. Moreover, the inhibition at 10 µM in [5] amounted to 33.3%. The inhibition at 20 µM in data set [5] came to 58%. Moreover, the inhibition at 40 µM in data set [5] came to 79.6%. Besides, in data set [5], the inhibition at 80 µM was 91%. Besides, the “Intracellular HEV RNA” value is given as 1.2 × 10^8 copies/well (mean) in data set [6] (setting [13]), 2.3 × 10^7 copies/well (mean) in data set [7] (setting [14]), 1.6 × 10^7 copies/well (mean) in data set [8] (setting [14]) and 4.4 × 10^7 copies/well (mean) in [10] (setting [13]). Moreover, the “HEV RNA titer in culture supernatants” value is recorded as 2.0 × 10^7 copies/mL in data set [6] (ribavirin monotherapy 40 µM), 2.9 × 10^7 copies/mL in data set [7] (setting [15]), 2.7 × 10^6 copies/mL in data set [8] (setting [15]) and 4.3 × 10^7 copies/mL in data set [10] (ribavirin monotherapy 40 µM). In data set [2] (ribavirin 40 µM during 4 h inoculation), the “expression of ORF2 protein” value was “detectable”.
On to `CC(C)c1nc(CN(C)C(=O)N[C@H](C(=O)N[C@@H](Cc2ccccc2)C[C@H](O)[C@H](Cc2ccccc2)NC(=O)OCc2cncs2)C(C)C)cs1` [Ritonavir, ritonavir], for which the intracellular luciferase activity in [4] (ritonavir 20 µM during attachment (4 °C 1 h, 37 °C 1 h), compared to untreated control) is reported as 100.4%. Besides, in [5], the inhibition at 0.05 µM was found to be 18.1%, the inhibition at 0.1 µM was determined as 29.1%, the inhibition at 0.5 µM is 59.6% and the inhibition at 1 µM worked out at 71.6%. In addition, in data set [5], the inhibition at 5 µM came to 89.7% and the inhibition at 35 µM was determined as 95.9%. Further, in data set [1] (ritonavir 20 µM added after attachment, 37 °C 2 h, compared to untreated control, p = 0.0036), the intracellular luciferase activity is given as 9.6%. For the same compound, the “risk of human teratogenicity” value in data set [11] is listed as “no evidence of an increased risk of human teratogenicity”. Moreover, the “inhibition of HEV growth in cultured cells” value in [12] is listed as “potent inhibition of HEV growth in cultured cells”. For the same compound, in [9] (ritonavir 20 µM pre-incubated with eHEV-nanoKAZ 1 h 37 °C, compared to untreated control), the intracellular luciferase activity was 94.3%. In addition, the “expression of ORF2 protein” value in data set [2] (ritonavir 20 µM during 4 h inoculation) is on record as “undetectable”.
